Data from paper PMC8533211, “Computationally Assisted Lead Optimization of Novel Potent and Selective MAO-B Inhibitors” (Biomedicines, 2021).
Like-named read-outs stand apart in the source and are kept apart here.

Tests used:
[1] = tested on: human recombinant MAO A; details: cited from earlier work
[2] = tested on: human recombinant MAO B; details: cited from earlier work; for IC50: human recombinant, kynuramine
[3] = target: T1, human recombinant MAO-A (Homo sapiens, UniProt P21397); experiment: kynuramine oxidation deamination assay, MAO-A inhibition (IC50); assay type: biochemical; details: kynuramine 80 μM, mean ± S.D. of triplicate
T1 construct: purchased BD Biosciences (Bedford, MA, USA)
T1 sequence (P21397 1-527): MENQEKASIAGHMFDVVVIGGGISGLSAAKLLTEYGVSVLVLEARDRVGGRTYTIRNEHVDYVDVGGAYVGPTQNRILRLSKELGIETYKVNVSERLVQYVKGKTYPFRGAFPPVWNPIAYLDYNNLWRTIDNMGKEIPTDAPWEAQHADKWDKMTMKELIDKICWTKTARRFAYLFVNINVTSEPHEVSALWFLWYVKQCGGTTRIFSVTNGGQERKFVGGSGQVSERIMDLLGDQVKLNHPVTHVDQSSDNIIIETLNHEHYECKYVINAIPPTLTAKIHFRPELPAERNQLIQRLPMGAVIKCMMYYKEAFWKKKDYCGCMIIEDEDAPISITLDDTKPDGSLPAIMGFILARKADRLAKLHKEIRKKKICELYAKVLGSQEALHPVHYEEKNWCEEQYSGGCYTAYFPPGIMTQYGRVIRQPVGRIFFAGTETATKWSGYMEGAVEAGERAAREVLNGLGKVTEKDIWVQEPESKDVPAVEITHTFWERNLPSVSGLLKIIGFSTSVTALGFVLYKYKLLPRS
Description: (§1) A fixed single concentration of kynuramine substrate and varying concentrations of the test inhibitor were used to determine the IC50 values. The kynuramine concentrations for MAO-A and -B were 80 μM and 50 μM, respectively. These concentrations of kynuramine were twice the apparent KM value for substrate binding. […] Enzymatic reactions were performed in 50 μL of the assay mixture containing 0.1 M potassium phosphate buffer, pH 7.4. […] Reactions were initiated by the addition of 12.50 μL of MAO-A (to 5 μg/mL) or -B (to 10 μg/mL). The plate was incubated for 20 min at 37 °C, and the enzymatic reaction was terminated by the addition of 18.8 μL of 2N NaOH. Formation of the enzyme product, 4-hydroxyquinoline, was measured fluorometrically using a SpectraMax M5 fluorescence plate reader (Molecular Devices, Sunnyvale, CA, USA) with excitation (320 nm) and emission (380 nm) wavelengths and the Soft Max Pro program. The inhibition effects of enzyme activity were calculated as percent of product formation compared to the corresponding control (enzyme–substrate reaction) without inhibitors. Controls included the assays where the enzyme or the substrate was added after terminating the reaction to determine the interference with the fluorescence measurements. The IC50 values for MAO-A and -B inhibition were calculated from the concentration-dependent inhibition curves using XLFit® software.

[4] = target: T2, human recombinant MAO-B (Homo sapiens, UniProt P27338); experiment: kynuramine oxidation deamination assay, MAO-B inhibition (IC50); assay type: biochemical; design: purchased BD Biosciences (Bedford, MA, USA); details: for Selectivity Index MAO-A/B: ratio of IC50 MAO-A / MAO-B; for IC50: recombinant human MAO-B, kynuramine 50 μM, mean ± S.D. of triplicate
T2 sequence (P27338 1-520): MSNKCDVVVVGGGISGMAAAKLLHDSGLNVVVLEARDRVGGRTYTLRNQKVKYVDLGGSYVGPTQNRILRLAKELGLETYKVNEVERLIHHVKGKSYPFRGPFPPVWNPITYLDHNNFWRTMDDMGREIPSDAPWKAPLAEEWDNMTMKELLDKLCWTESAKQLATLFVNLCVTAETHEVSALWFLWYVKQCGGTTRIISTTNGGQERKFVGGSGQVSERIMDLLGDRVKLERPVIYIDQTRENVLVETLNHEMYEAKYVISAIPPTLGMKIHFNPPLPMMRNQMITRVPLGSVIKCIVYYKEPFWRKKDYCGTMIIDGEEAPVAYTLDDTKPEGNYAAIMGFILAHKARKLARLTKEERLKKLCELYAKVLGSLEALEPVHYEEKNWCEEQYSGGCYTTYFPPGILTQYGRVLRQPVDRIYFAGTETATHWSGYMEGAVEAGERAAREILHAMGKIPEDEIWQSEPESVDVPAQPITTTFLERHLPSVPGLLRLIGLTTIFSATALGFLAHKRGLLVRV
Description: as §1, with “The kynuramine concentrations for MAO-A and -B were 80 μM and 50 μM, respectively.” left out

| SMILES | IC50 [3] | Selectivity Index MAO-A/B [4] | IC50 [4] | further results |
| --- | --- | --- | --- | --- |
| O=c1cc(-c2ccc(O)cc2)oc2cc(O)cc(O)c12 [Apigenin] |  |  |  | IC50 ([1]; human recombinant, kynuramine): 640 ± 110 nM; IC50 [2]: 1120 ± 270 nM |
| COc1cc(O)c(C(=O)/C=C/c2ccc(OCC(C)C)cc2)c(OC)c1 [Compound 3a, (E)-1-(2-Hydroxy-4,6-dimethoxyphenyl)-3-(4-isobutoxyphenyl)prop-2-en-1-one] | 0.42 ± 0.002 µM | 1.9 | 0.22 ± 0.0211 µM |  |
| O=c1c(O)c(-c2ccc(O)c(O)c2)oc2cc(O)cc(O)c12 [Quercetin] |  |  |  | IC50 [1]: 1520 ± 90 nM; Selectivity Index MAO-A/B [2]: 0.05; IC50 [2]: 28400 ± 5410 nM |
| COc1ccc(-c2oc3cc(O)cc(O)c3c(=O)c2OC)cc1 [3,4′-Di-O-methyl kaempferol] |  |  |  | IC50 ([1]; human recombinant, kynuramine): 33 ± 42 nM; IC50 [2]: 9670 ± 2390 nM |
| COc1cc(O)c(C(=O)/C=C/c2ccc(OCC3CC3)cc2)c(OC)c1 [Compound 5a, (E)-3-(4-(Cyclopropylmethoxy)phenyl)-1-(2-hydroxy-4,6-dimethoxyphenyl)prop-2-en-1-one] | 1.3 ± 0.09 µM | 1.4 | 0.9 ± 0.035 µM |  |
| C#CCOc1ccc(-c2cc(=O)c3c(OC)cc(OC)cc3o2)cc1 [Compound 4b, 5,7-Dimethoxy-2-(4-(prop-2-yn-1-yloxy)phenyl)-4H-chromen-4-one] | > 100 µM | >1 | > 100 µM |  |
| CCCNc1ccc(-c2cc(=O)c3c(OC)cc(OC)cc3o2)cc1 [Compound 6c, 5,7-Dimethoxy-2-(4-(propylamino)phenyl)-4H-chromen-4-one] | > 100 µM | >4.5 | 22.1 ± 2.48 µM |  |
| COc1ccc2c(c1)[nH]c1c(C)nccc12 [Harmine, reference compound] |  |  | 39 ± 1.41 µM |  |
| COc1cc(O)c(C(=O)/C=C/c2ccc(Br)cc2)c(OC)c1 [Compound 6a, (E)-3-(4-Bromophenyl)-1-(2-hydroxy-4,6-dimethoxyphenyl)prop-2-en-1-one] | 12.3 ± 0.249 µM |  | > 100 µM |  |
| COc1cc(O)c2c(=O)cc(-c3ccc(NCC4CC4)cc3)oc2c1 [Compound 8d, 2-(4-((Cyclopropylmethyl)amino)phenyl)-5-hydroxy-7-methoxy-4H-chromen-4-one] | 39.1 ± 0.555 µM | 17.9 | 2.19 ± 0.088 µM |  |
| COc1cc(OC)c2c(=O)cc(-c3ccc(NC(C)C)cc3)oc2c1 [Compound 7c, 2-(4-(Isopropylamino)phenyl)-5,7-dimethoxy-4H-chromen-4-one] | 37.5 ± 0.476 µM | 4.0 | 9.45 ± 0.113 µM |  |
| COc1ccc(-c2oc3cc(O)cc(O)c3c(=O)c2O)cc1 [4′-O-Methyl kaempferol] |  |  |  | IC50 ([1]; human recombinant, kynuramine): 1350 ± 198 nM; IC50 [2]: > 100000 nM |
| COc1cc(O)c2c(=O)cc(-c3ccc(O)c(OC)c3)oc2c1 [Vetulin] |  |  |  | IC50 ([1]; human recombinant, kynuramine): 18800 ± 290 nM; Selectivity Index MAO-A/B [2]: 42.70; IC50 [2]: 440 ± 10 nM |
| COc1cc(-c2oc3cc(O)cc(O)c3c(=O)c2O)ccc1O [Isorhamnetin] |  |  |  | IC50 ([1]; human recombinant, kynuramine): 6420 ± 7690 nM; Selectivity Index MAO-A/B [2]: 0.30; IC50 [2]: 21200 ± 4990 nM |
| COc1cc(O)c(C(=O)/C=C/c2ccc(OC(C)C)cc2)c(OC)c1 [Compound 2a, (E)-1-(2-Hydroxy-4,6-dimethoxyphenyl)-3-(4-isopropoxyphenyl)prop-2-en-1-one] | 0.117 ± 0.05 µM | 2.4 | 0.049 ± 0.0035 µM |  |
| CCCOc1ccc(-c2cc(=O)c3c(OC)cc(OC)cc3o2)cc1 [Compound 1b, 5,7-Dimethoxy-2-(4-propoxyphenyl)-4H-chromen-4-one] | > 100 µM | >58.8 | 1.7 ± 0.076 µM |  |
| COc1cc(OC)c2c(=O)cc(-c3ccc(OCC4CC4)cc3)oc2c1 [Compound 5b, 2-(4-(Cyclopropylmethoxy)phenyl)-5,7-dimethoxy-4H-chromen-4-one] | > 100 µM | >4.4 | 22.8 ± 2.1 µM |  |
| COc1cc(OC)c2c(=O)cc(-c3ccc(OCC(C)C)cc3)oc2c1 [Compound 3b, 2-(4-Isobutoxyphenyl)-5,7-dimethoxy-4H-chromen-4-one] | > 100 µM | >13.8 | 7.23 ± 2.14 µM |  |
| COc1cc(OC)c2c(=O)cc(-c3ccc(NCC4CC4)cc3)oc2c1 [Compound 8c, 2-(4-((Cyclopropylmethyl)amino)phenyl)-5,7-dimethoxy-4H-chromen-4-one] | 39.1 ± 5.14 µM | 3.1 | 12.7 ± 0.29 µM |  |
| COc1cc(O)c2c(=O)cc(-c3ccc(O)cc3)oc2c1 [Genkwanin] |  |  |  | IC50 ([1]; human recombinant, kynuramine): 140 ± 10 nM; Selectivity Index MAO-A/B [2]: 0.40; IC50 [2]: 350 ± 30 nM |
| CCCNc1ccc(-c2cc(=O)c3c(O)cc(OC)cc3o2)cc1 [Compound 6d, 5-Hydroxy-7-methoxy-2-(4-(propylamino)phenyl)-4H-chromen-4-one] | 85.5 ± 1.59 µM | 55.0 | 1.55 ± 0.137 µM |  |
| COc1cc(OC)c2c(=O)cc(-c3ccc(OC(C)C)cc3)oc2c1 [Compound 2b, 2-(4-Isopropoxyphenyl)-5,7-dimethoxy-4H-chromen-4-one] | > 100 µM | >37.9 | 2.64 ± 0.088 µM |  |
| COc1ccc(-c2cc(=O)c3c(O)cc(O)cc3o2)cc1O [Diosmetin] |  |  |  | IC50 ([1]; human recombinant, kynuramine): 5740 ± 570 nM; Selectivity Index MAO-A/B [2]: 3.63; IC50 [2]: 1580 ± 880 nM |
| CCCOc1ccc(/C=C/C(=O)c2c(O)cc(OC)cc2OC)cc1 [Compound 1a, (E)-1-(2-Hydroxy-4,6-dimethoxyphenyl)-3-(4-propoxyphenyl)prop-2-en-1-one] | 0.515 ± 0.024 µM | 1.3 | 0.4 ± 0.024 µM |  |
| COc1cc(OC)c2c(=O)cc(-c3ccc(Br)cc3)oc2c1 [Compound 6b, 2-(4-Bromophenyl)-5,7-dimethoxy-4H-chromen-4-one] | 87.8 ± 5.45 µM | 3.1 | 28.4 ± 2.64 µM |  |
| C#CCOc1ccc(/C=C/C(=O)c2c(O)cc(OC)cc2OC)cc1 [Compound 4a, (E)-1-(2-Hydroxy-4,6-dimethoxyphenyl)-3-(4-(prop-2-yn-1-yloxy)phenyl)prop-2-en-1-one] | 9.42 ± 1.78 µM | 1.1 | 8.33 ± 0.787 µM |  |
| COc1cc(O)c2c(=O)cc(-c3ccc(NC(C)C)cc3)oc2c1 [Compound 7d, 5-Hydroxy-2-(4-(Isopropylamino)phenyl)-7-methoxy-4H-chromen-4-one] | 40.5 ± 2.37 µM | 97.1 | 0.417 ± 0.012 µM |  |
| C#CCN[C@@H]1CCc2ccccc21 [Rasagiline] |  |  |  | nature of MAO-B inhibition (reversible/irreversible) [2]: irreversible MAO-B inhibitors; selectivity towards MAO-B against MAO-A [2]: 103 fold |
